Assay [1] deals with T1, androgen receptor (AR) splicing variant AR-v7 (Homo sapiens, UniProt P10275).
T1 construct: The degradation activity of compounds on AR-v7 in 22RV1 cells; host or cells: 22RV1 cells
T1 sequence (P10275 1-644 isoform P10275-3): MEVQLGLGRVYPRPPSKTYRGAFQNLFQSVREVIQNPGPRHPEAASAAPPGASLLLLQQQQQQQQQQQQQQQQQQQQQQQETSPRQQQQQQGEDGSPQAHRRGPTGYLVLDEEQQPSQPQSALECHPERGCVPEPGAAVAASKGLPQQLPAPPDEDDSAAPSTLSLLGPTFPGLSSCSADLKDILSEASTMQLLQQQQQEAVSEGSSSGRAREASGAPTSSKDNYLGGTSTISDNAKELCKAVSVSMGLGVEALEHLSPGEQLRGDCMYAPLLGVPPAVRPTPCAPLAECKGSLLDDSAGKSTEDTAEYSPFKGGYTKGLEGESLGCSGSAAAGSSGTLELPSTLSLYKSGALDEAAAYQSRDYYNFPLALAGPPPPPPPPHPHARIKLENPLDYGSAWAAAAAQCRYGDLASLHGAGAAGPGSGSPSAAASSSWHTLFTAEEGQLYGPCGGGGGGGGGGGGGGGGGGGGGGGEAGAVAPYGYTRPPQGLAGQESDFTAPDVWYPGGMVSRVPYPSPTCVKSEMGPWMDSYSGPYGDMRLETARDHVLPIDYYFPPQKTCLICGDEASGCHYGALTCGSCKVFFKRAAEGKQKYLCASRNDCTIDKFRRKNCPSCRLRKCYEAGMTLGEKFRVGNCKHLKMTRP
Put plainly: Degradation activity on androgen receptor splicing variant AR-v7 in 22RV1 cells (ELISA). In kind it is cell-based. The note with it: AR-v7 degradation in 22RV1 cells, 48 h, class symbols. Background: An ELISA detects its analyte on a solid surface through an enzyme-linked reagent.

[2] abbreviates: Homo sapiens, 22Rv1, 144 h, read-out: 22RV1 IC50 (nM), 22RV1 cells, 6 days culture, CCK-8, OD 450 nm.
[3] abbreviates: read-out: 22RV1 IC50, 22RV1 cells, 6 days culture, CCK-8, OD 450 nm.

Each structure is given as a SMILES string. Like-named read-outs stand apart in the source and are kept apart here.

In the case of `CNC(=O)c1nccc(COc2ccc(C(C)(C)c3ccc(O[C@H]4C[C@H](Nc5ccc6c(c5)C(=O)N(C5CCC(=O)NC5=O)C6=O)C4)cc3)cc2)n1` (stereo partly drawn) [Example 186, 4-((4-(2-(4-((1r,3r)-3-((2-(2,6-dioxopiperidin-3-yl)-1,3-dioxoisoindolin-5-yl)amino)cyclobutyloxy)phenyl)propan-2-yl)phenoxy)methyl)-N-methylpyrimidin-2-carbonylamine], the DC50 in assay [1] was 11 to 100 nM. Further, the IC50 in the assay with 22RV1 cells (setting [2]) is 32 nM.

Regarding `CC(C)(c1ccc(Oc2cnc(-n3nccn3)nc2)cc1)c1ccc(O[C@H]2C[C@H](Nc3ccc4c(c3)C(=O)N(C3CCC(=O)NC3=O)C4=O)C2)cc1` (stereo partly drawn) [Example 436, 5-(((1r,3r)-3-(4-(2-(4-((2-(2H-1,2,3-triazol-2-yl)pyrimidin-5-yl)oxy)phenyl)propan-2-yl)phenoxy)cyclobutyl)amino)-2-(2,6-dioxopiperidin-3-yl)isoindolin-1,3-dione], in assay [1], the DC50 is less than 10 nM. Moreover, the IC50 in the assay with 22RV1 cells (setting [2]) is 6 nM.

The compound `CC(=O)c1ccc(Oc2ccc(C3(c4ccc(O[C@H]5C[C@H](Nc6ccc7c(c6)C(=O)N(C6CCC(=O)NC6=O)C7=O)C5)cc4)CCOCC3)cc2)nn1` (stereo partly drawn) [Example 106] showed a DC50 in assay [1] of less than 10 nM. Further, the IC50 in the assay with 22RV1 cells (setting [2]) stood at 0.3 nM.

Take `CCC(CC)(c1ccc(Oc2cnc(C(C)=O)nc2)cc1)c1ccc(O[C@H]2C[C@H](Nc3ccc4c(c3)C(=O)N(C3CCC(=O)NC3=O)C4=O)C2)cc1` (stereo partly drawn) [Example 132]: the DC50 in assay [1] was less than 10 nM. The IC50 with 22RV1 cells (setting [2]) stood at 5 nM.

For `CC(O)c1cnc(Oc2ccc(C(C)(C)c3ccc(O[C@H]4C[C@H](Nc5ccc6c(c5)C(=O)N(C5CCC(=O)NC5=O)C6=O)C4)cc3)cc2)cn1` (stereo partly drawn) [Example 595], in assay [1], the DC50 was less than 10 nM. Further, in the assay with 22RV1 cells (setting [2]), the IC50 came to 4 nM.

The compound `CC(C)(O)c1ccnc(Oc2ccc(C(C)(C)c3ccc(O[C@H]4C[C@H](Nc5ccc6c(c5)C(=O)N(C5CCC(=O)NC5=O)C6=O)C4)cc3)cc2)n1` (stereo partly drawn) [Example 161] displayed a DC50 in assay [1] of less than 10 nM. Also, in the assay on 22RV1 cells (setting [2]), the IC50 came to 10 nM.

Turning to `CC(C)(c1ccc(OCc2cccc(C(O)C3CC3)n2)cc1)c1ccc(O[C@H]2C[C@H](Nc3ccc4c(c3)C(=O)N(C3CCC(=O)NC3=O)C4=O)C2)cc1` (stereo partly drawn) [Example 116, 5-(((trans)-3-(4-(2-(4-((6-(cyclopropyl(hydroxyl)methyl)pyridin-2-yl)methoxy)phenyl)propan-2-yl)phenoxy)cyclobutyl)amino)-2-(2,6-dioxopiperidin-3-yl)isoindolin-1,3-dione], in assay [1], the DC50 is less than 10 nM. For the same compound, in the assay with 22RV1 cells (setting [2]), the IC50 was determined as 17 nM.

In the case of `CC(C)(c1ccc(OCc2ccnc(N3CC[C@H](O)C3)n2)cc1)c1ccc(OC2CC(Nc3ccc4c(c3)C(=O)N(C3CCC(=O)NC3=O)C4=O)C2)cc1` (stereo partly drawn) [Example 398], the DC50 in assay [1] was less than 10 nM. For the same compound, in the assay with 22RV1 cells (setting [3]), the IC50 was determined as 9 nM.

`CC(C)(c1ccc(Oc2ccc(-n3ccnn3)nc2)cc1)c1ccc(O[C@H]2C[C@H](Nc3ccc4c(c3)C(=O)N(C3CCC(=O)NC3=O)C4=O)C2)cc1` (stereo partly drawn) [Example 207, 5-((1r,3r)-3-(4-(2-(4-((6-(1H-1,2,3-triazol-1-yl)pyridin-3-yl)oxy)phenyl)propan-2-ylphenoxy)cyclobutyl)amino)-2-(2,6-dioxopiperidin-3-yl) isoindolin-1,3-dione]: the DC50 in assay [1] was less than 10 nM. For the same compound, the IC50 with 22RV1 cells (setting [2]) was determined as 16 nM.

With `CC(C)(c1ccc(OCCCNc2ccc3c(c2)C(=O)N(C2CCC(=O)NC2=O)C3=O)cc1)c1ccc(OCc2ccnc(N3CCOCC3)n2)cc1` (stereo not drawn) [Example 71, 2-(2,6-dioxopiperidin-3-yl)-5-((3-(4-(2-(4-((2-morpholinepyrimidin-4-yl)methoxy)phenyl)propan-2-yl)phenoxy)propyl)amino)isoindolin-1,3-dione], the DC50 in assay [1] is 11 to 100 nM. Also, in the assay on 22RV1 cells (setting [2]), the IC50 was found to be 35 nM.

In assay [1], `CC(=O)c1nccc(COc2ccc(C(C)(C)c3ccc(OC[C@H](CCCl)Nc4ccc5c(c4)C(=O)N(C4CCC(=O)NC4=O)C5=O)cc3)cc2)n1` (stereo partly drawn) [Example 306] displayed a DC50 of less than 10 nM. Also, the IC50 with 22RV1 cells (setting [2]) worked out at 13 nM.

Compound `CC(C)(c1ccc(OCc2ccnc(-n3ccnc3)n2)cc1)c1ccc(OC2CC(Nc3ccc4c(c3)C(=O)N(C3CCC(=O)NC3=O)C4=O)C2)cc1` (stereo not drawn) [Example 405, 5-((1s,3s)-3-(4-(2-(2-(1H-imidazol-1-yl)pyrimidin-4-yl)methoxy)phenyl)propan-2-yl)phenoxy)cyclobutyl)amino)-2-(2,6-dioxopiperidin-3-yl)isoindol-1,3-dione] returned a DC50 in assay [1] of less than 10 nM. Further, the IC50 with 22RV1 cells (setting [3]) was found to be 19 nM.

As for `Cc1nc(-c2ccc(Oc3ccc(C(C)(C)c4ccc(O[C@H]5C[C@H](Nc6ccc7c(c6)C(=O)N(C6CCC(=O)NC6=O)C7=O)C5)cc4)cc3)cn2)no1` (stereo partly drawn) [Example 581], in assay [1], the DC50 is less than 10 nM. For the same compound, in the assay on 22RV1 cells (setting [2]), the IC50 was 10 nM.

In assay [1], `CC(c1ccc(Oc2cnc(-n3nccn3)nc2)cc1)c1ccc(O[C@H]2C[C@H](Nc3ccc4c(c3)C(=O)N(C3CCC(=O)NC3=O)C4=O)C2)cc1` (stereo partly drawn) [Example 518] gave a DC50 of less than 10 nM. The IC50 in the assay on 22RV1 cells (setting [2]) came to 13 nM.

In assay [1], `CC(C)(c1ccc(OCc2ccnc(N3CC4(COC4)C3)n2)c(F)c1)c1ccc(O[C@H]2C[C@H](Nc3ccc4c(c3)C(=O)N(C3CCC(=O)NC3=O)C4=O)C2)c(F)c1` (stereo partly drawn) [Example 365, 5-(((1r,3r)-3-(4-(2-(4-((2-(2-oxa-6-azaspiro[3.3]heptane-6-yl)pyrimidin-4-yl)methoxy)-3-fluorophenyl)isopropan-2-yl)-2-fluorophenoxy)cyclobutyl)amino)-2-(2,6-dioxopiperidin-3-yl)isoindolin-1,3-dione] came in with a DC50 of less than 10 nM. Also, in the assay on 22RV1 cells (setting [2]), the IC50 is 9 nM.

As for `CCC(CC)(c1ccc(Oc2cnc(C(C)=O)cn2)cc1)c1ccc(O[C@H]2C[C@@H](Nc3ccc4c(c3)C(=O)N(C3CCC(=O)NC3=O)C4=O)C2)cc1` (stereo partly drawn) [Example 296], the DC50 in assay [1] was less than 10 nM. Also, the IC50 in the assay with 22RV1 cells (setting [2]) came out at 7 nM.

As for `CC1CN(c2nccc(COc3ccc(C(C)(C)c4ccc(OC5CC(Nc6ccc7c(c6)C(=O)N(C6CCC(=O)NC6=O)C7=O)C5)cc4)cc3)n2)CC(C)N1` (stereo not drawn) [Example 452, 5-((3-(4-(2-(4-((2-(3,5-dimethylpiperazin-1-yl)pyrimidin-4-yl)methoxy)phenyl)propan-2-yl)phenoxy)cyclobutyl)amino)-2-(2,6-dioxopiperidin-3-yl)isoindolin-1,3-dione], the DC50 in assay [1] lay in the range of 11 to 100 nM. In the assay on 22RV1 cells (setting [2]), the IC50 amounted to 8 nM.

With `CC(=O)c1ncc(Oc2ccc(C3(c4ccc(O[C@H]5C[C@H](Nc6ccc7c(c6)C(=O)N(C6CCC(=O)NC6=O)C7=O)C5)cc4)CC3)cc2)cn1` (stereo partly drawn) [Example 378, 5-(((1r,3r)-3-(4-(1-(4-((2-acetylpyrimidin-5-yl)oxy)phenyl)cyclopropyl)phenoxy)cyclobutyl)amino)-2-(2,6-dioxopiperidin-3-yl)isoindolin-1,3-dione], the DC50 in assay [1] was 11 to 100 nM. In the assay with 22RV1 cells (setting [2]), the IC50 came to 7 nM.

Turning to `CN1CCN(C(=O)c2noc(COc3ccc(C(C)(C)c4ccc(OCCCNc5ccc6c(c5)C(=O)N(C5CCC(=O)NC5=O)C6=O)cc4)cc3)n2)CC1` (stereo not drawn) [Example 141], in assay [1], the DC50 is 11 to 100 nM. In addition, the IC50 in the assay with 22RV1 cells (setting [2]) came out at 85 nM.

Regarding `CCC(CC)(c1ccc(Oc2cnc(C(C)=O)cn2)cc1)c1ccc(O[C@H]2C[C@H](Nc3ccc4c(c3)C(=O)N(C3CCC(=O)NC3=O)C4=O)C2)cc1` (stereo partly drawn) [Example 294], the 50% degradation concentration (DC50) in assay [1] is less than 10 nM. Further, the IC50 in the assay with 22RV1 cells (setting [2]) came out at 4.2 nM.

In the case of `CC(C)(c1ccc(OCc2nc(N3CC4(COC4)C3)ncc2F)cc1)c1ccc(O[C@H]2C[C@H](Nc3ccc4c(c3)C(=O)N(C3CCC(=O)NC3=O)C4=O)C2)cc1` (stereo partly drawn) [Example 200], the DC50 in assay [1] was less than 10 nM. Further, the IC50 in the assay with 22RV1 cells (setting [2]) came to 12 nM.

Compound `CCC(CC)(c1ccc(Oc2cnc(C(C)O)nc2)cc1)c1ccc(O[C@H]2C[C@H](Nc3ccc4c(c3)C(=O)N(C3CCC(=O)NC3=O)C4=O)C2)cc1` (stereo partly drawn) [Example 131] gave a DC50 in assay [1] of less than 10 nM. The IC50 in the assay on 22RV1 cells (setting [2]) worked out at 4 nM.

The compound `CC(C)(c1ccc(OCCCNc2ccc3c(c2)C(=O)N(C2CCC(=O)NC2=O)C3=O)cc1)c1ccc(OCc2ccnc(N)n2)cc1` (stereo not drawn) [Example 74, 5-((3-(4-(2-(4-((2-aminopyrimidin-4-yl)methoxy)phenyl)propan-2-yl)phenoxy)propyl)amino)-2-(2,6-dioxopiperidin-3-yl)isoindolin-1,3-dione] had a DC50 in assay [1] of 11 to 100 nM. For the same compound, the IC50 in the assay with 22RV1 cells (setting [2]) is 31 nM.

`Cc1cncc(Oc2ccc(C(C)(C)c3ccc(O[C@H]4C[C@H](Nc5ccc6c(c5)C(=O)N(C5CCC(=O)NC5=O)C6=O)C4)cc3)cc2)n1` (stereo partly drawn) [Example 536, 2-(2,6-dioxopiperidin-3-yl)-5-(((1r,3r)-3-(4-(4-((6-methylpyrazin-2-yl)oxy)phenyl)propan-2-yl)phenoxy)amino)isoindolin-1,3-dione] registered a DC50 in assay [1] of less than 10 nM. Besides, the IC50 in the assay with 22RV1 cells (setting [2]) was 5 nM.

Usually DC50 stands for the midpoint of the concentration-degradation curve. Higher therefore signals degradation only at high concentration. The IC50 is the concentration that gives 50% inhibition.

The values are drawn from US20250051347A1, “BIFUNCTIONAL CHIMERIC HETEROCYCLIC COMPOUND AND USE THEREOF AS ANDROGEN RECEPTOR DEGRADER” (Hinova Pharmaceuticals, Inc., priority 2021, published 2025).
